Consider four molecules from article PMC10413841, “Exploration of Thiourea-Based Scaffolds for the Construction of Bacterial Ureases Inhibitors” (ACS Omega, 2023).

In general, Ki refers to a dissociation constant, usually derived from enzyme kinetics or from competition with a known ligand. What is called IC50 is the concentration that gives 50% inhibition.

Molecules are shown by their SMILES. Like-named read-outs stand apart in the source and are kept apart here.

Assay [1] addresses T1, native S. pasteurii CCM 2056 urease (Sporosarcina pasteurii, UniProt P41020).
T1 construct: The S. pasteurii CCM 2056 cells were used as the source of a native enzyme; endogenous in cells; host or cells: S. pasteurii CCM 2056 culture; endogenous enzyme purified in house from the sonicated cell extract by five-step chromatography
The arrangement: method as in PMID 25699141. The settings on record: previously reported; read-out: Ki against purified enzyme from S. pasteurii; cited from earlier work.

Assay [2] relates to live cells of P. mirabilis PCM 543. The arrangement: method as in PMID 27550502. The conditions noted are these: 1 mM acetohydroxamate; remaining ureolysis in P. mirabilis PCM 543; cited from earlier work.
Assay [3] has as its target purified enzyme from P. mirabilis. The arrangement: method as in PMID 25699141. The conditions noted are these: previously reported; read-out: Ki against purified enzyme from P. mirabilis; cited from earlier work.
Assay [4] concerns the target T1, native S. pasteurii CCM 2056 urease. Description: Inhibition of purified native urease, indophenol (Berthelot) ammonia assay. The class given is biochemical. The conditions noted are these: for Ki: purified native enzyme, EI dissociation constant from Lineweaver-Burke plots, urea up to 30 mM, 3 mM phosphate buffer, read-out: Ki [μM] (± SD). On the procedure: The kinetic properties of the compounds as potential urease inhibitors were evaluated against native enzyme purified from S. pasteurii CCM 2056 culture. Residual enzyme activity was expressed as ammonia release from urea followed quantitively using the Berthelot reaction. All of the studied structures were reversibly inhibitory, with dissociation constants ranging from submicromolar to moderate micromolar concentrations (Table 1). The α quantifier between the enzyme-substrate-inhibitor complex (ESI) dissociation constant Ki* and the EI dissociation constant Ki [drawing 1] was calculated to determine the influence of substrate binding on the stability of the EI complex. […] For modeled compounds 19, 16, and 29, the values of α were 152.01, 38.04, and 14.52, respectively. […] For comparison, the α value of compound 52 was 1.37.
The S. pasteurii CCM 2056 cells were used as the source of a native enzyme. The culture medium was made of 20 g/L yeast extract. One day after the inoculation, the medium was further supplemented with 1 mM NiCl2 and 1% urea. After 2 more days of growth, the cells were centrifuged and disintegrated via sonication. Enzyme purification from the cell extract was conducted using a five-step chromatographic method as previously reported.[50]
Inhibition of the purified urease was measured using the indophenol assay for ammonia concentration.[65] The kinetic assays in 3 mM phosphate buffer contained the purified enzyme, studied thiourea analogues, and a range of urea concentrations up to saturating 30 mM. Total progress curves were analyzed with the addition of the enzyme at the reaction start. Assays were terminated with the sequential addition of 100 μL of M1 ([…] sodium nitroprusside, 0.53 M phenol) and M2 (0.625 M sodium hydroxide, 47.1 mM sodium hypochlorite) solution to 50 μL of reaction mixture sample. After 15 min of color development, absorbance at 650 nm was measured. […] In order to verify the inhibition mode as well as calculate the dissociation constant for EI complex, Lineweaver–Burke curves were plotted (1/v = f(1/[S])). For noncompetitive or mixed inhibition mode, Ki was calculated from plots of the LB curves slope as a function of inhibitor concentration.

For assay [5], the system named is live cells of S. pasteurii CCM 2056. Description: Whole-cell ureolysis: ammonia release from urea in live cells. The settings on record: Sporosarcina pasteurii, CCM2056; urea hydrolysis in live cells; 30 mM urea; 10 mM PBS; read-out: IC50 [μM] (± SD) S. pasteurii cells. Format: cell-based, Sporosarcina pasteurii.
The subject of assay [6] is live cells of P. mirabilis PCM 543. Described as above. Format: cell-based, Proteus mirabilis. The conditions noted are these: Proteus mirabilis, urea hydrolysis in live cells; 30 mM urea; 10 mM PBS; read-out: IC50 [μM] (± SD) P. mirabilis cells. On the procedure:
Proteus mirabilis PCM 543 was cultured as described for S. pasteurii except for nickel ions—0.3 mM NiCl2 was used in the growth medium. Cells harvested by centrifugation were resuspended in 10 mM PBS and used for urease activity measurements. Assays were conducted in 10 mM PBS containing 30 mM urea and different concentrations of urease inhibitors and ammonia quantified by indophenol assay.

T1 sequence (P41022 whole entry): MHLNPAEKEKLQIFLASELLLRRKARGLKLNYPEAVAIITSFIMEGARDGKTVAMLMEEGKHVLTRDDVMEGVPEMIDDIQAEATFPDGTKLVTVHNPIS
T1 sequence (P41021 whole entry, further chain): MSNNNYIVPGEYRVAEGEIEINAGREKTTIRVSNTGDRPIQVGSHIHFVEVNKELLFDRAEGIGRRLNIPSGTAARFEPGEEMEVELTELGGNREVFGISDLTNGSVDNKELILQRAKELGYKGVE
T1 sequence (P41020 whole entry): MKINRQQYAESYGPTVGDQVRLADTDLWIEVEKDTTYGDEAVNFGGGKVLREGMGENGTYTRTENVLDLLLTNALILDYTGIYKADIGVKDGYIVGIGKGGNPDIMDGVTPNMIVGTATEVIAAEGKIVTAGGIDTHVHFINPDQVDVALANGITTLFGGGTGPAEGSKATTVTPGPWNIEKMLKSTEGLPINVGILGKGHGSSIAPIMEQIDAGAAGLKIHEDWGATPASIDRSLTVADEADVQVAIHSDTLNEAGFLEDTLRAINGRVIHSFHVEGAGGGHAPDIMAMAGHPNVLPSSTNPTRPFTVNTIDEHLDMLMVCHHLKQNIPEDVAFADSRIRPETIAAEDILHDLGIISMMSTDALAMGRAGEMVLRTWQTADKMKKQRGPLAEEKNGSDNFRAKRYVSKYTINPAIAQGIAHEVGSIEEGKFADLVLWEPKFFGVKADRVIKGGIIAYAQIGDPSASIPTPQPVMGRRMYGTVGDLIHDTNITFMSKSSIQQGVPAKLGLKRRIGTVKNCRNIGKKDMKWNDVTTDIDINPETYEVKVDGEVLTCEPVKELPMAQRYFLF

As for `CC(=O)NO` [acetohydroxamate], the Ki in assay [1] was 3.3 ± 0.4 µM; in assay [3] it was 5.7 ± 0.4 µM. Also, the “whole-cell ureolysis reduced to” value in assay [2] is listed as 42 ± 6%.
As to `NC(=S)N/N=C/c1ccc(Cl)cc1` [Compound 17, (E)-2-(4-Chlorobenzylidene)hydrazine-1-carbothioamide], in assay [4], the Ki was found to be 8.15 ± 0.908 µM. The IC50 turned out to be 16.4 ± 0.94 µM in assay [5] and 454 ± 26.3 µM in assay [6].
With `Cc1ccc(/C=C/C(=N\NC(N)=S)c2ccccc2)cc1` [Compound 22, (E)-2-((E)-1-Phenyl-3-(p-tolyl)allylidene)hydrazine-1-carbothioamide], in assay [4], the inhibitory constant (Ki) came out at 5.18 ± 0.691 µM. Besides, the IC50 came to 764 ± 50.3 µM in assay [5] and 1110 ± 126 µM in assay [6].
As to `C/C(=N\NC(N)=S)c1ccc(O)cc1` [Compound 20, (E)-2-(1-(4-Hydroxyphenyl)ethylidene)hydrazine-1-carbothioamide], the “type (mode) of inhibition” value in assay [4] (purified S. pasteurii urease) was “noncompetitive”. Moreover, the inhibition constant Ki in assay [4] is 33.4 ± 2.61 µM. In addition, the results for the concentration for half-maximal inhibition (IC50) in assay [5] and in assay [6] were 87.6 ± 9.07 µM and 513 ± 33.9 µM, respectively.
